Experimental data as given in patent publication US9491946B2, “Ag loaded silica nanoparticle/nanogel formulation, methods of making, and methods of use” (University of Central Florida Research Foundation, Inc., priority 2011, dated 2016).

How the values were obtained:
B. subtilis, ATCC 9372 [1] = test: growth inhibition assay by turbidity (OD 600 nm), Mueller Hinton II broth; format: cell-based, Bacillus subtilis; details: equivalent metallic Ag concentration
Description: (§1) Antibacterial properties of AgSiNP200 and AgSiNP50 were evaluated against Gram-positive, Bacillus subtilis (B. subtilis, ATCC 9372) and Staphylococcus aureus (S. aureus, ATTC 25923) and a Gram-negative, Escherichia coli (E. coli, ATCC 35218) organism. […] All the bacteria were obtained from the UCF Department of Molecular Biology and Microbiology Preparatory Laboratories) by Microbiology Department, University of Central Florida, Orlando. All the antibacterial assays were done using Mueller Hinton II medium (Fulka Analytical, USA).
(§2) The bacterial inhibition studies for the AgSiNP200 and AgSiNP50 were done using a method as described by Rastogi et al.^41. The procedure is briefly described below. Different concentrations of AgSiNP200 (metallic silver concentrations of 63.5 μg/ml, 38.1 μg/ml, 19.05 μg/ml, 9.53 μg/ml, 4.77 μg/ml, 2.68 μg/ml, 1.34 μg/ml, 953 ng/ml, 477 ng/ml, 95.3 ng/ml and 47.7 ng/ml) and AgSiNP50 (metallic silver concentrations of 30.24 μg/ml, 20.16 μg/ml, 10.08 μg/ml, 5.04 μg/ml, 2.52 μg/ml, 1.26 μg/ml, 630 ng/ml and 63 ng/ml) were prepared in sterile Mueller Hinton II broth in sterile tubes. To achieve uniform growth for this comparative study, all the tubes contained same amount of broth. We have used 0.85% of sterile saline to make up the volume to 0.9 ml in each tube. In the next step, 0.1 ml of 10^6 CFU/ml of bacteria culture was added to each tube. […]

E. coli, ATCC 35218 [2] = test: bacterial growth inhibition in LB broth using turbidity (Example 2); format: cell-based, Escherichia coli; details: 24 hours, 37° C., OD 600 nm
Description: (§3) Antibacterial properties of C—S CuSiNP and AgSiNG materials were evaluated against a gram positive Bacillus subtilis (B. subtilis, ATCC 9372) and a gram negative Escherichia coli (E. coli, ATCC 35218) organism. For all antibacterial assays, bacterial concentration of 10^5 cells/mL was considered. Copper sulfate with same metallic copper concentration was used as positive controls and silica nanoparticle (without Cu loading) was used as negative control.
(§4) Two sets of different concentrations of C—S CuSiNP were made in LB broth (0.49, 1.2, 2.4, 4.9, 7.2 and 9.8 ppm copper concentration) to a final volume of 10 mL. 250 μL (10^5 cells/mL) of E. coli and B. subtilis were added to set 1 and 2 respectively. Silica nanoparticle was used as negative control and copper sulfate with equivalent amount of copper was used as positive control. […]
(§5) The growth inhibitory effects of C—S CuSiNP and AgSiNG against E. coli and B. subtilis were studied in liquid media (FIG. 2.3 and FIG. 2.4). Bacterial growth with different concentrations of C—S CuSiNP and AgSiNG (0.49 to 9.8 μg mL^−1) was monitored after 24 hours of incubation at 37° C. by measuring the optical density at 600 nm using Teysche800 spectrophotometer. Since the turbidity of silica based material can interfere with the optical density reading, the background measurement was subtracted to calculate the final reading.

E. coli, ATCC 35218 [3] = format: cell-based, Escherichia coli; details: equivalent metallic Ag concentration
Description: as §1, §2

S. aureus, ATTC 25923 = format: cell-based, Staphylococcus aureus; details: equivalent metallic Ag concentration
Description: as §1, §2

B. subtilis, ATCC 9372 [4] = test: bacterial growth inhibition in LB broth using turbidity (Example 2); format: cell-based, Bacillus subtilis; details: 24 hours, 37° C., OD 600 nm
Description: as §3, §4, §5

O=[N+]([O-])[O-].[Ag+] [Ag nitrate, silver nitrate]
growth inhibition result in words (controls versus AgSiNP nanoformulations) (B. subtilis, ATCC 9372 [1]): no significant difference in growth inhibition results | silver concentration at which growth inhibition can be seen (E. coli, ATCC 35218 [2]): 2.4 ppm | growth inhibition result in words (controls versus AgSiNP nanoformulations) (E. coli, ATCC 35218 [3]): no significant difference in growth inhibition results | growth inhibition result in words (controls versus AgSiNP nanoformulations) (S. aureus, ATTC 25923): no significant difference in growth inhibition results | silver concentration at which growth inhibition can be seen (B. subtilis, ATCC 9372 [4]): 2.4 ppm
